Test results from PubChem BioAssay (NCI).
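Method: 48-hour compound exposure of cells in 96-well plates, five concentrations, linear interpolation of endpoints. The concentration for 50% growth inhibition is given as GI50. TGI is the concentration that stops growth completely.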

What was measured:
Assay in all cases: inhibition of tumour cell growth, NCI panel, 48 h
NCI-H460 lung = test system: NCI-H460 lung
PC-3 prostate = test system: PC-3 prostate
SW-620 colon = test system: SW-620 colon
SF-539 CNS = test system: SF-539 CNS
T-47D breast = test system: T-47D breast
KM12 colon = test system: KM12 colon
SK-MEL-28 melanoma = test system: SK-MEL-28 melanoma
MOLT-4 leukemia = test system: MOLT-4 leukemia
CAKI-1 renal = test system: CAKI-1 renal
COLO 205 colon = test system: COLO 205 colon
UACC-62 melanoma = test system: UACC-62 melanoma
HT29 colon = test system: HT29 colon
786-0 renal = test system: 786-0 renal
NCI-H226 lung = test system: NCI-H226 lung
K-562 leukemia = test system: K-562 leukemia
A498 renal = test system: A498 renal
SF-268 CNS = test system: SF-268 CNS
SR leukemia = test system: SR leukemia
OVCAR-8 ovarian = test system: OVCAR-8 ovarian
HOP-92 NSCLC = test system: HOP-92 NSCLC
OVCAR-5 ovarian = test system: OVCAR-5 ovarian
MDA-MB-468 breast = test system: MDA-MB-468 breast
HCT-15 colon = test system: HCT-15 colon
OVCAR-4 ovarian = test system: OVCAR-4 ovarian
BT-549 breast = test system: BT-549 breast
UO-31 renal = test system: UO-31 renal
CCRF-CEM leukemia = test system: CCRF-CEM leukemia
SNB-75 CNS = test system: SNB-75 CNS
DU-145 prostate = test system: DU-145 prostate
HS 578T breast = test system: HS 578T breast
NCI-H522 lung = test system: NCI-H522 lung
HOP-62 NSCLC = test system: HOP-62 NSCLC
RXF 393 renal = test system: RXF 393 renal
SK-OV-3 ovarian = test system: SK-OV-3 ovarian
TK-10 renal = test system: TK-10 renal
U251 CNS = test system: U251 CNS
NCI-H23 lung = test system: NCI-H23 lung
OVCAR-3 ovarian = test system: OVCAR-3 ovarian
MDA-MB-435 = test system: MDA-MB-435
SF-295 CNS = test system: SF-295 CNS
MCF7 breast = test system: MCF7 breast
HL-60(TB) leukemia = test system: HL-60(TB) leukemia
MALME-3M melanoma = test system: MALME-3M melanoma
IGROV1 ovarian = test system: IGROV1 ovarian
LOX IMVI melanoma = test system: LOX IMVI melanoma
SNB-19 CNS = test system: SNB-19 CNS
NCI/ADR-RES ovarian = test system: NCI/ADR-RES ovarian
HCT-116 colon = test system: HCT-116 colon
MDA-MB-231 breast = test system: MDA-MB-231 breast
SK-MEL-5 melanoma = test system: SK-MEL-5 melanoma
ACHN renal = test system: ACHN renal
EKVX NSCLC = test system: EKVX NSCLC
M14 melanoma = test system: M14 melanoma
SK-MEL-2 melanoma = test system: SK-MEL-2 melanoma
HCC-2998 colon = test system: HCC-2998 colon
SN12C renal = test system: SN12C renal
UACC-257 melanoma = test system: UACC-257 melanoma
RPMI-8226 leukemia = test system: RPMI-8226 leukemia
A549 NSCLC = test system: A549 NSCLC

`CN(CCO)c1oc(-c2ccccc2)nc1[P+](c1ccccc1)(c1ccccc1)c1ccccc1` gave a GI50 (NCI-H460 lung) of 2.74 µM, a TGI (NCI-H460 lung) of 12.4 µM and a GI50 (PC-3 prostate) of 1.75 µM. For the same compound, the TGI (PC-3 prostate) was 10.4 µM, the GI50 (SW-620 colon) was 2.9 µM and the TGI (SW-620 colon) was 23.1 µM. The GI50 (SF-539 CNS) was 2.74 µM, the TGI (SF-539 CNS) was 12.1 µM and the GI50 (T-47D breast) was 0.517 µM. The TGI (T-47D breast) was 11.2 µM, the GI50 (KM12 colon) was 2.12 µM and the TGI (KM12 colon) was 10.2 µM. For the same compound, the GI50 (SK-MEL-28 melanoma) was 1.54 µM, the TGI (SK-MEL-28 melanoma) was 12.7 µM and the GI50 (MOLT-4 leukemia) was 2.77 µM. For the same compound, the TGI (MOLT-4 leukemia) was 11.8 µM, the GI50 (CAKI-1 renal) was 4 µM and the TGI (CAKI-1 renal) was 24.9 µM. The GI50 (COLO 205 colon) was 1.46 µM, the TGI (COLO 205 colon) was 3.28 µM and the GI50 (UACC-62 melanoma) was 1.23 µM. It also gave a TGI (UACC-62 melanoma) of 5.97 µM, a GI50 (HT29 colon) of 2.82 µM and a TGI (HT29 colon) of 21.2 µM. For the same compound, the GI50 (786-0 renal) was 5.31 µM, the TGI (786-0 renal) was 20.8 µM and the GI50 (NCI-H226 lung) was 2.73 µM. The TGI (NCI-H226 lung) was 10.9 µM, the GI50 (K-562 leukemia) was 1.01 µM and the TGI (K-562 leukemia) was 13.6 µM. For the same compound, the GI50 (A498 renal) was 6.82 µM, the TGI (A498 renal) was 22.8 µM and the GI50 (SF-268 CNS) was 3.27 µM. For the same compound, the TGI (SF-268 CNS) was 14 µM, the GI50 (SR leukemia) was 1.64 µM and the TGI (SR leukemia) was 12.4 µM. It also gave a GI50 (OVCAR-8 ovarian) of 3.33 µM, a TGI (OVCAR-8 ovarian) of 16.3 µM and a GI50 (HOP-92 NSCLC) of 1.22 µM. The TGI (HOP-92 NSCLC) was 4.9 µM, the GI50 (OVCAR-5 ovarian) was 2.27 µM and the TGI (OVCAR-5 ovarian) was 8.21 µM. For the same compound, the GI50 (MDA-MB-468 breast) was 0.285 µM, the TGI (MDA-MB-468 breast) was 1.37 µM and the GI50 (HCT-15 colon) was 13.5 µM. It also gave a TGI (HCT-15 colon) of 31.2 µM, a GI50 (OVCAR-4 ovarian) of 2.79 µM and a TGI (OVCAR-4 ovarian) of 27.1 µM. The GI50 (BT-549 breast) was 1.78 µM, the TGI (BT-549 breast) was 7.08 µM and the GI50 (UO-31 renal) was 19 µM. For the same compound, the TGI (UO-31 renal) was 54.3 µM, the GI50 (CCRF-CEM leukemia) was 2.39 µM and the TGI (CCRF-CEM leukemia) was 12.2 µM. For the same compound, the GI50 (SNB-75 CNS) was 1.28 µM, the TGI (SNB-75 CNS) was 5.89 µM and the GI50 (DU-145 prostate) was 3.26 µM. For the same compound, the TGI (DU-145 prostate) was 13.7 µM, the GI50 (HS 578T breast) was 2.39 µM and the TGI (HS 578T breast) was 9.08 µM. It also gave a GI50 (NCI-H522 lung) of 0.854 µM, a TGI (NCI-H522 lung) of 4.05 µM and a GI50 (HOP-62 NSCLC) of 3.49 µM. It also gave a TGI (HOP-62 NSCLC) of 13 µM, a GI50 (RXF 393 renal) of 1.94 µM and a TGI (RXF 393 renal) of 9.64 µM. It also gave a GI50 (SK-OV-3 ovarian) of 2.98 µM, a TGI (SK-OV-3 ovarian) of 8.21 µM and a GI50 (TK-10 renal) of 3.5 µM. It also gave a TGI (TK-10 renal) of 15.2 µM, a GI50 (U251 CNS) of 2.31 µM and a TGI (U251 CNS) of 13.6 µM. For the same compound, the GI50 (NCI-H23 lung) was 2.27 µM, the TGI (NCI-H23 lung) was 7.25 µM and the GI50 (OVCAR-3 ovarian) was 1.08 µM. For the same compound, the TGI (OVCAR-3 ovarian) was 12.6 µM, the GI50 (MDA-MB-435) was 1.6 µM and the TGI (MDA-MB-435) was 9.66 µM. For the same compound, the GI50 (SF-295 CNS) was 2.62 µM, the TGI (SF-295 CNS) was 9.92 µM and the GI50 (MCF7 breast) was 1.21 µM. The TGI (MCF7 breast) was 6.84 µM, the GI50 (HL-60(TB) leukemia) was 0.535 µM and the TGI (HL-60(TB) leukemia) was 2.73 µM. For the same compound, the GI50 (MALME-3M melanoma) was 1.6 µM, the TGI (MALME-3M melanoma) was 9.14 µM and the GI50 (IGROV1 ovarian) was 0.802 µM. It also gave a TGI (IGROV1 ovarian) of 7.45 µM, a GI50 (LOX IMVI melanoma) of 2.21 µM and a TGI (LOX IMVI melanoma) of 10.1 µM. For the same compound, the GI50 (SNB-19 CNS) was 2.01 µM, the TGI (SNB-19 CNS) was 7.95 µM and the GI50 (NCI/ADR-RES ovarian) was > 100 µM. The TGI (NCI/ADR-RES ovarian) was > 100 µM, the GI50 (HCT-116 colon) was 2.84 µM and the TGI (HCT-116 colon) was 12 µM. For the same compound, the GI50 (MDA-MB-231 breast) was 1.36 µM, the TGI (MDA-MB-231 breast) was 4.18 µM and the GI50 (SK-MEL-5 melanoma) was 1.15 µM. It also gave a TGI (SK-MEL-5 melanoma) of 2.52 µM, a GI50 (ACHN renal) of 8.36 µM and a TGI (ACHN renal) of 41.6 µM. The GI50 (EKVX NSCLC) was 2.35 µM, the TGI (EKVX NSCLC) was 13.4 µM and the GI50 (M14 melanoma) was 2.81 µM. It also gave a TGI (M14 melanoma) of 12.4 µM, a GI50 (SK-MEL-2 melanoma) of 1.96 µM and a TGI (SK-MEL-2 melanoma) of 5.43 µM. The GI50 (HCC-2998 colon) was 1.82 µM, the TGI (HCC-2998 colon) was 12.4 µM and the GI50 (SN12C renal) was 2.4 µM. It also gave a TGI (SN12C renal) of 6.88 µM, a GI50 (UACC-257 melanoma) of 1.95 µM and a TGI (UACC-257 melanoma) of 9.63 µM. It also gave a GI50 (RPMI-8226 leukemia) of 0.393 µM, a TGI (RPMI-8226 leukemia) of 4.03 µM and a GI50 (A549 NSCLC) of 5.22 µM. It also gave a TGI (A549 NSCLC) of 34.6 µM.
